These results are taken from patent US8729047B2, “Compositions for inhibiting redox-sensitive GTPases” (Board of Regents, The University of Texas System, priority 2010, dated 2014).

Each structure is given as a SMILES string. Read-outs that look alike come from different tables or passages of the source.

The target in one assay is RhoC (Homo sapiens, UniProt P08134). Nature of the assay: Guanine nucleotide exchange of [3H]GDP-loaded GTPase with 6-TGDP (FIG. 13A). Type of assay: binding. Set-up: made in house; host or cells: E. coli. The method, then:
FIG. 13. Guanine nucleotide exchange of small GTPases with 6-TGDP. (A) To monitor 6-TGDP-mediated GTPase GDP dissociation, [^3H]GDP-loaded GTPase (1 μM) was incubated with 6-TGDP (0-2000 μM) for 1 h. (B) To monitor GTPase 6-TGDP dissociation by GDP (0-2000 μM) in the presence and absence of dithiothreitol (DTT), 6-TGDP-loaded GTPase (˜1 μM) was treated with .NO2 (˜3 μM) under anaerobic conditions and was incubated with various concentrations of [^3H]GDP (0-2000 μM) in the presence and absence of DTT (10 mM) for 1 h. For all assays, aliquots were withdrawn and spotted onto nitrocellulose filters. The filters were then washed three times with an assay buffer, and radioactivity was determined using a Beckman-Coulter scintillation counter. The resultant radioactivity (dpm) values associated with GTPase-bound [^3H]GDP were converted into the fraction of mol nucleotide per mol total GTPase. The data presented represent mean and standard error values from triplicate measurements. The apparent dissociation constants (appKD values) of GTPase 6-TGDP association ([^3H]GDP dissociation, A); and 6-TGDP dissociation ([3H]GDP association, B) were obtained by fitting the data to a simple dissociation and association, respectively. (A) The ^appKD values of Ras, RhoC, RhoA and Rac1 for 6-TGDP, are, respectively, 2300, 230, 224, and 245 μM [6-TGDP]. (B) The appKD values of RhoC with and without DTT are, respectively, 560, and 1000 μM [[^3H]GDP], whereas the ^appKD values of Ras with and without DTT are 530, and 520 μM [[^3H]GDP], respectively. The standard errors of each ^appKD value are less than 10% of their given values, and regression values associated with the fit were r^2>0.9560.
A kinetic assay method using radiolabeled GDP ([^3H]GDP) was established. The apparent dissociation constants (^appKD 6-TGDP) of Rho GTPases (including RhoA, Cdc42, and Rac1/2/3) and Ras with 6-TGDP were determined (FIG. 13). The results of this preliminary kinetic study provided strong support for the mechanism proposed for the role of 6-TGNP in RhoC inactivation (FIG. 7).
The true dissociation constant (^trueKD 6-TGDP) of Ras, RhoC, RhoA and Rac1 for 6-TGDP was then calculated to be ˜20.7 pM, 212 μM, 208 μM, and 158 μM [6-TGDP] by using a compensation equation, ^trueKD 6-TGDP=^appKD 6-TGDP/(1+[GDP]/^trueKD GDP) (95), in conjunction with the values given [(^appKD 6-TGDP of Ras, RhoC, RhoA, and Rac1=2300, 230, 224, and 245 μM (FIG. 13) and ^trueKD GDP=9 pM, 12 μM, 13 μM and 1.8 μM, respectively. The ^trueKD GDP of Ras, RhoA and Rac1 was determined previously (Lenzen et al. Biochemistry 37, 7420-7430 (1998); Heo et al. Biochemistry 44, 6573-6585 (2005)) and the ^trueKD GDP of RhoC was further determined. Example: ^trueKD 6-TGDP for Ras=2300 μM/(1+1 μM GDP/[…])=[…] [6-TGDP]].

A further assay deals with T1, RhoA (Homo sapiens, UniProt P61586).
T1 construct: made in house; host or cells: E. coli
T1 sequence (P61586 whole entry, species assumed): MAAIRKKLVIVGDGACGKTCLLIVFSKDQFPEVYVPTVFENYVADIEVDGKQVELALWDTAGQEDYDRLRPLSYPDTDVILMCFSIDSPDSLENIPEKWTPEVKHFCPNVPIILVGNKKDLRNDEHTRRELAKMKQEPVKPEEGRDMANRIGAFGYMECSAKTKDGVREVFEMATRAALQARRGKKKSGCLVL
To be noted: determined previously; read-out: trueKD GDP; cited from earlier work.

The target of a further assay is Rac1 (Homo sapiens, UniProt P63000). The assay is described as follows: Rac1 expression (Western) and Rac1 G-LISA activity in activated T cells. Type of assay: cell-based. The method, then: FIG. 26. Determination of Rac1 activity and ERM phosphorylation. […] (A) The soluble cell extract was then used to perform Western blot analyses for Rac1 and the ERM. This cell extract also was used for the co-IP-based ESI-MS analysis (FIG. 8). (B) A Rac1 activity assay was colorimetrically determined using cell extract; the assay was performed with the Rac1 G-LISA Activation Assay Kit (Cat. No. BK125) (Denver, Colo.). To examine the level of phosphorylation of the ERM, cells were cultured in complete RPMI 1640 medium with ˜50 μCi of ^32P/mL before initiating stimulation of T cells. The collected cell extract was nutated with resin coupled with a human ERM (231C2a) antibody (Santa Cruz Biotechnology, CA) at 4° C. for 5 h. […] The immunoprecipitates were then analyzed by SDS-PAGE and autoradiographed. […] The data represented in the figure represent the mean values of triplicate measurements, and the vertical error bar indicates standard errors.

A further assay relates to SW480 cells. Nature of the assay: QCM Cell Invasion Assay, time-dependent motility. The note with it: 6-TG in combination with a NO donor for 3 days; FIG. 14B. Type of assay: cell-based, human. The method, then: (§1) FIG. 14. Determination of cell invasiveness in the presence and absence of thiopurines and/or redox agents.
(§2) The Colorimetric-based QCM Cell Invasion Assay kit (Millipore, Billerica, Mass.) was used for the time-dependent cell migration assay of SUM149, SW480, and HCCLM3 cells. Serum-free sample cells (2×10^5 cells/mL) were prepared as indicated in the section of the matrigel invasion assay. The serum-free sample cells (0.25 mL) were loaded to the rehydrated upper chamber. […] Serum-free or serum-containing media (0.5 mL) was added to the lower chamber. The plate covered was then incubated for one to four days at 37° C. in a 10% CO2 incubator. […] The fraction of cells migrated from the upper chamber to the lower chamber was then measured colorimetrically according to the procedure provided by the manufacture.

The next assay deals with HCCLM3 cells. The assay is described as follows: QCM Cell Invasion Assay, time-dependent motility. To be noted: 6-TG in combination with a NO donor for 3 days; FIG. 14B. It is filed as cell-based, human. As for the experimental part:
as §1, §2

Assay [1] addresses T2, Ras (Homo sapiens, UniProt P01112, G12V).
T2 construct: endogenous in cells; text also names HT1080
The assay is described as follows: Ras expression and activity in T24 / HT1080 cells. It is filed as cell-based. To be noted: T24 (or HT1080) cells, 6-TG 1 μM every 48 h and DETA/NO 10 μM every 20 h, longer than 10 days; FIG. 8. As for the experimental part: (§3) FIG. 8. Examination of Ras and Raf-1 activity in T24 cells treated with various reagents. […] The total Raf-1 expression also was determined using an anti-Raf-1 antibody. Actin expression in cells was shown as controls.

Assay [2] concerns Ras. Nature of the assay: Ras expression and activity in T24 / HT1080 cells. The note with it: T24 and HT1080 cells, 8-TG 1 μM with NO donor; not shown. It is filed as cell-based, human. As for the experimental part: as §3

Chain of RhoC (P08134 whole entry): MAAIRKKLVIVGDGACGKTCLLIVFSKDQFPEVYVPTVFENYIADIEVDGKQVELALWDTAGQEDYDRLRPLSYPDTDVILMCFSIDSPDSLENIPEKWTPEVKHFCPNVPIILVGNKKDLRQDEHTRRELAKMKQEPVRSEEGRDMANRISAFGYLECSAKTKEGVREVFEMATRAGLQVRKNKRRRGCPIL

Consider `Nc1nc2c(ncn2[C@@H]2O[C@H](COP(=O)(O)OP(=O)(O)O)[C@@H](O)[C@H]2O)c(=S)[nH]1` [6-TGDP, 6-thioguanosine diphosphate], for which the Kd on RhoC ([3H]GDP-loaded GTPase 1 μM, 6-TGDP 0-2000 μM, 1 h, FIG. 13A, read-out: appKD for 6-TGDP) was 230 µM; on RhoC (calculated by compensation equation from appKD 6-TGDP and trueKD GDP, read-out: trueKD 6-TGDP) it was 212 µM.

For the compound `Nc1nc2c(ncn2[C@@H]2O[C@H](COP(=O)(O)OP(=O)(O)O)[C@@H](O)[C@H]2O)c(=O)[nH]1` [GDP], the Kd is 13 µM on RhoA and 12 µM at RhoC (further determined (Example 2), read-out: trueKD GDP).

As for `Nc1nc2nc[nH]c2c(=S)[nH]1` [6-TG, 6-thioguanine], on Rac1 (6-TG 1 μM, within 3 days, FIG. 26B), the Rac1 inactivation result was “significant portion of Rac1 was inactivated”. At Rac1 (6-TG plus DETA/NO 10 μM), the “fraction of inactive Rac1” value is “synergistically increases the fraction of inactive Rac1”. Also, the “cellular expression level of Rac1 and ERM” value on Rac1 (presence or absence of 6-TG, FIG. 26A) is on record as “not changed”. The “most of the invasive motility” value in the assay on SW480 cells and in the assay on HCCLM3 cells was “terminated” throughout. Also, the Ras inactivation entry on Ras [1] is reported as “significant amount of Ras (per cell mass) was inactivated”.

As to `Nc1nc2[nH]c(S)nc2c(=O)[nH]1` [8-TG, 2-amino-8-mercapto-1H-purin-6(9H)-one], the “screen of 6-TP isomers on Rac1 activity” value at Rac1 (not shown) was “most effectively inhibits Rac1 activity”. The “expression and activity of Ras” value in the assay on Ras [2] is recorded as “virtually unchanged”.
